Measured values: PubChem BioAssay (NCI)
Values joined by “and” are separate entries in the source; they are usually repeats but may differ in a detail not shown here. Identical values can stand only once.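 Test compounds were applied to cells in 96-well plates for 48 hours at 5 doses. GI50 is the concentration that inhibits growth by half. The concentration for full growth arrest is given as TGI.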 *1 amine or outer side, *2 acyl side, *3 side chain or, on linkers, in order; H or OH if unused. Where a SMILES comes first, the peptide text is derived from it. Bridges are numbered along the chain shown (N, C = ends). [ ]: non-standard residue; d: D form. The star is where a group is joined. Phe(3-Me) = Cc1cccc(C[C@H](N)C(=O)O)c1; NH(4-Cl-2-F-phenyl) = Fc1cc(Cl)ccc1N*; Pro(4R-Me) = C[C@H]1CN[C@H](C(=O)O)C1; Propanoyl(3-NMe2) = CN(C)CCC(=O)*; Hyp = O=C(O)[C@@H]1C[C@@H](O)CN1; aThr = C[C@H](O)[C@H](N)C(=O)O; Pip = O=C(O)[C@@H]1CCCCN1; CO = O=C([*:1])[*:2]

How the values were obtained:
Assay in all cases: DTP human tumour cell line panel, 48 h
ACHN renal = tested on: ACHN renal
HOP-92 NSCLC = tested on: HOP-92 NSCLC
HT29 colon = tested on: HT29 colon
KM12 colon = tested on: KM12 colon
MDA-MB-231 breast = tested on: MDA-MB-231 breast
NCI-H23 lung = tested on: NCI-H23 lung
OVCAR-5 ovarian = tested on: OVCAR-5 ovarian
RPMI-8226 leukemia = tested on: RPMI-8226 leukemia
SK-MEL-2 melanoma = tested on: SK-MEL-2 melanoma
SR leukemia = tested on: SR leukemia

SMILES	GI50 (ACHN renal)	TGI (ACHN renal)	GI50 (HOP-92 NSCLC)	TGI (HOP-92 NSCLC)	GI50 (HT29 colon)	TGI (HT29 colon)	GI50 (KM12 colon)	TGI (KM12 colon)	GI50 (MDA-MB-231 breast)	TGI (MDA-MB-231 breast)	GI50 (NCI-H23 lung)	TGI (NCI-H23 lung)	GI50 (OVCAR-5 ovarian)	TGI (OVCAR-5 ovarian)	GI50 (RPMI-8226 leukemia)	TGI (RPMI-8226 leukemia)	GI50 (SK-MEL-2 melanoma)	TGI (SK-MEL-2 melanoma)	GI50 (SR leukemia)	TGI (SR leukemia)
COc1ccc(CNc2nc(NCc3ccc(OC)cc3)c3n[nH]c(C(C)C)c3n2)cc1	7.6 µM	20.7 µM	9.48 µM	37.4 µM	1.61 µM	10.7 µM	4.29 µM	> 100 µM	4.67 µM	21.8 µM	4.09 µM	18.3 µM	8.65 µM	56.6 µM	3.27 µM	12.5 µM	1.98 µM	4.93 µM	2.48 µM	6.17 µM
CC(=O)Nc1sc2c(c1-c1nc3ccccc3s1)CNC2	1.28 µM	7.56 µM	4.21 µM	19.2 µM	3.76 µM	19.4 µM	3.38 µM	> 50 µM	3.09 µM	16.2 µM	2.44 µM	11.8 µM	3.05 µM	18 µM	3.57 µM	19.3 µM	2.67 µM	9.71 µM	1.68 µM	12.6 µM
Nc1nc2c(c3cnccc13)C(c1cccc(Cl)c1)Cc1cnccc1-2 (stereo not drawn)	0.761 µM	11.9 µM	0.811 µM	18.2 µM	0.336 µM	2.56 µM	0.409 µM	12.2 µM	0.763 µM	11 µM	0.382 µM	3.51 µM	0.706 µM	18.6 µM	0.48 µM	20.2 µM	0.374 µM	5.25 µM	0.293 µM	> 100 µM
O=C(O)/C=C\C(=O)Nc1ccc2c(c1)C(=O)c1cc(F)ccc1-2		> 100 µM		> 100 µM		> 100 µM		> 100 µM		> 100 µM		> 100 µM		> 100 µM		> 100 µM		> 100 µM		> 100 µM
O=C1c2cccnc2C(=O)c2c1c(C(=O)OCCN1CCOCC1)c1ccccn21	< 0.01 µM	11.5 µM	0.0262 µM	0.319 µM	0.316 µM	2.31 µM	0.0725 µM	15.7 µM	0.905 µM	41.2 µM	< 0.01 µM		0.276 µM	1.65 µM	0.0914 µM	4.65 µM	0.0585 µM	1.61 µM	< 0.01 µM	1.83 µM
CC[C@@]1(O)C(=O)OCc2c1cc1n(c2=O)Cc2c-1nc1ccccc1c2/C=N/OC(C)(C)C	< 0.01 µM	0.127 µM	< 0.0149 µM	3.4 µM	0.0187 µM	0.66 µM	0.0441 µM	4.84 µM	0.552 µM	18.1 µM	< 0.01 µM	0.158 µM	0.113 µM	5.47 µM	0.0116 µM	0.551 µM	0.0447 µM	1.22 µM	< 0.01 µM	0.108 µM
Cc1cccc(C[C@H](NC(=O)Nc2ccc(Cl)cc2F)C(=O)N[C@@H]2C(=O)N3C[C@H](OC(=O)CCN(C)C)C[C@H]3C(=O)N3CCCC[C@H]3C(=O)N[C@@H](C)C(=O)N3C[C@H](C)C[C@H]3C(=O)O[C@H]2C)c1 ({NH(4-Cl-2-F-phenyl)-CO}-[Phe(3-Me)][aThr][Hyp](Propanoyl(3-NMe2))[Pip]A[Pro(4R-Me)]; ester 2-C)	1.75 µM	3.49 µM	0.572 µM	2.66 µM	0.526 µM	2.82 µM	0.746 µM	2.34 µM	0.417 µM	1.66 µM	0.519 µM	3.17 µM	0.552 µM	2.53 µM	0.181 µM	1.88 µM	0.667 µM	2.67 µM	0.624 µM	3.94 µM
COc1ccc(-c2nocc2-c2cc(OC)c(OC)c(OC)c2)cc1	1.53 µM	> 70.3 µM	2.02 µM	59 µM	0.0379 µM	4.76 µM	0.0386 µM	14.1 µM	0.35 µM	> 58.4 µM	0.445 µM	> 86.5 µM	1.38 µM	> 100 µM	0.348 µM	30.9 µM	0.0664 µM	69.2 µM	0.0497 µM	> 76.3 µM
C=C1N(C)c2ccc(Cl)cc2C1(C)C	24.6 µM	> 100 µM	3.72 µM	22.9 µM	3.24 µM	18.6 µM	3.95 µM	13.7 µM	16.7 µM	57.4 µM	5.47 µM	> 100 µM	31 µM	> 100 µM	2.56 µM	10.4 µM	13.5 µM	42.8 µM	2.74 µM	8.94 µM
COc1ccc(Cn2c(Br)c3c(c2-c2cc(OC)c(OC)c(OC)c2)CCc2sc(NC(C)=O)nc2-3)cc1	5.27 µM	26.9 µM	1.88 µM	9.64 µM	3.41 µM	11.1 µM	4.03 µM	> 100 µM	3.22 µM	43.6 µM	8.6 µM	> 100 µM	4.39 µM	> 100 µM	4.23 µM	> 100 µM	3.82 µM	> 100 µM	2.44 µM	> 100 µM
O=C(CCl)Nc1ccc2c(c1)C(=O)c1ccc(NC(=O)CCl)cc1C2=O			1.13 µM	2.61 µM	0.314 µM	4.21 µM	1.06 µM	2.42 µM	0.486 µM	2.36 µM	0.253 µM	0.834 µM	0.371 µM	1.63 µM	0.434 µM	2.23 µM	0.783 µM	3.84 µM	0.0959 µM	1.98 µM
O=S(=O)(NCCCNc1cc(-c2cn(-c3ccccc3)nc2-c2cccc(O)c2)ccn1)c1ccc(Cl)cc1	2.74 µM	13.6 µM	1.52 µM	4.74 µM	0.471 µM	1.7 µM	1.95 µM	4.93 µM	1.81 µM	4.69 µM	1.64 µM	4.98 µM	2.04 µM	5.64 µM	1.49 µM	4.68 µM	1.91 µM	3.51 µM	1.58 µM	5.16 µM
Cc1ccccc1/C=C1\CN(C(=O)OC(C)(C)C)C/C(=C\c2ccccc2C)C1=O	2.7 µM	7.15 µM	1.9 µM	5.75 µM	2.86 µM	7.61 µM	2.03 µM	4.68 µM	3.49 µM	12.6 µM	2.2 µM	4.99 µM	2.16 µM	4.86 µM	1.66 µM	5.37 µM	10.1 µM	26.5 µM	1.89 µM	> 100 µM
Cc1nc2cc(N)c(Cl)cc2[nH]1		> 100 µM				> 100 µM		> 100 µM		> 100 µM		> 100 µM		> 100 µM		> 100 µM		> 100 µM		> 100 µM
CCc1ccc(Nc2cc(C)nc3nc(C)nn23)cc1	34.8 µM	> 100 µM	28.9 µM	> 100 µM	39.8 µM	> 100 µM	70.6 µM	> 100 µM	31.4 µM	> 100 µM	> 100 µM	> 100 µM	> 100 µM	> 100 µM	32 µM	> 100 µM	> 100 µM	> 100 µM	53.1 µM	> 100 µM
Cc1ccc(NC(=O)c2nc(S(C)=O)oc2-c2ccc(F)cc2)cc1Nc1nccc(-c2cccnc2)n1 (stereo not drawn)	1.69 µM	3.1 µM	2.13 µM	4.69 µM	1.82 µM	3.53 µM	2.58 µM	7.14 µM	1.94 µM	4.38 µM	1.83 µM	4.49 µM	4.46 µM	30.1 µM	2.43 µM	6.5 µM	1.78 µM	4.03 µM	0.726 µM	3.79 µM
Nc1c(C(=O)Nc2ccccc2)sc2nc3c(cc12)CCCC3	1.61 µM	> 100 µM	0.509 µM	> 100 µM	0.74 µM	> 26.3 µM	0.485 µM	> 100 µM	3.93 µM	> 100 µM	1.08 µM	> 100 µM	18.6 µM	> 100 µM	0.681 µM	11.5 µM	3.24 µM	> 67.3 µM	0.36 µM	19.6 µM
COC(=O)C1C2CCCN2OC1(C)CO (stereo not drawn)		> 100 µM				> 100 µM		> 100 µM		> 100 µM		> 100 µM		> 100 µM		> 100 µM		> 100 µM		> 100 µM
S=C(N/N=C(/c1ccccc1)c1ccccn1)Nc1cccc(Cl)c1		4.6 µM and 5.42 µM	1.65 µM	13 µM	0.662 µM and 0.0738 µM	11.9 µM	0.144 µM	3.55 µM and 6.75 µM		2.27 µM	1.35 µM	5.58 µM and 16.8 µM	0.05 µM	4.47 µM	0.00601 µM		0.0753 µM	2.87 µM	0.00413 µM	
O=C1OC2C(O)C(=O)OC2C1O (stereo not drawn)		> 100 µM		> 100 µM		> 100 µM		> 100 µM		> 100 µM		> 100 µM		> 100 µM				> 100 µM		> 100 µM
COc1cc(NC(N)=NCCC(C)(C)c2ccc(C(F)(F)F)cc2)ncc1C#N	1.65 µM	3.01 µM	1.3 µM	2.74 µM	1.62 µM	3.14 µM	1.8 µM	3.38 µM	1.8 µM	3.34 µM	1.53 µM	3.15 µM	1.97 µM	3.76 µM	1.27 µM	3.3 µM	1.84 µM	3.38 µM	1.7 µM	4.06 µM
O=CC1(C2(C=O)c3ccccc3-c3ccccc32)c2ccccc2-c2ccccc21	1.83 µM	4.19 µM	1.58 µM	3.83 µM	1.32 µM	2.51 µM			2.8 µM	6.98 µM	2.11 µM	4.82 µM	3.21 µM	6.34 µM			2 µM	4.82 µM	1.65 µM	3.43 µM
Cc1nn(-c2ccc(Br)cc2)c(C)c1CC(=O)c1cc(O)ccc1O	9.16 µM	24.6 µM			13.2 µM	36.7 µM	5.91 µM	> 50 µM	5.35 µM	15 µM	10.9 µM	35.7 µM	16.2 µM	> 50 µM	8.21 µM	> 50 µM	23 µM	> 50 µM	0.911 µM	> 50 µM
CCCCCCCCCC(CCCC(O)CC(=O)O)OC1OC(COC2OC(C)C(O)C(O)C2O)C(O)C(O)C1OC1OC(CO)C(O)C(O)C1OC1OC(C)C(O)C(O)C1O (stereo not drawn)	> 40 µM	> 40 µM	> 40 µM	> 40 µM	> 40 µM	> 40 µM	> 40 µM	> 40 µM	> 40 µM	> 40 µM	> 40 µM	> 40 µM	> 40 µM	> 40 µM	> 40 µM	> 40 µM			> 40 µM	> 40 µM
CSc1nc2c(c(=O)[nH]1)C(c1ccc(Cl)cc1)C1=C(N2)/C(=C/c2ccc(Cl)cc2)CNC1 (stereo not drawn)	1.81 µM	3.86 µM			2.05 µM	5.09 µM	2.06 µM	4.47 µM	1.75 µM	4.48 µM	2.48 µM	5.84 µM	2.53 µM	6.25 µM	0.629 µM	3.14 µM	2.76 µM	9.53 µM	1.9 µM	5.87 µM
CC(=O)OCC1OC(n2c(-c3ccccc3)c(C)c(C)c(C#N)c2=S)C(OC(C)=O)C(OC(C)=O)C1OC(C)=O (stereo not drawn)	26.8 µM and > 100 µM	> 100 µM	0.0211 µM	24 µM		> 100 µM		> 100 µM		> 50 µM and 30.9 µM	32.9 µM and 16.3 µM	> 50 µM and 54.7 µM		> 100 µM			35.5 µM and 14.6 µM	> 50 µM and 41.3 µM	32.3 µM and 95.3 µM	> 100 µM
O=C1c2ccccc2C(=O)c2c1ccc1c2OCO1				> 100 µM		> 100 µM		> 100 µM		> 100 µM		> 100 µM		> 100 µM		> 100 µM		> 100 µM		> 100 µM
